For this experiment, the target named is human prostatic tissue. Nature of the experiment: In vitro human prostate model: block of phenylephrine-induced contraction of human prostatic tissue. Type of experiment: cell-based. The text has this: The protocol for these experiments is given below.
Functional Properties of α1 Antagonists in the Human Prostate
The efficacy of α1 adrenergic antagonists for the treatment of benign prostatic hyperplasia (BPH) is related to their ability to elicit relaxation of prostate smooth muscle. An index of this efficacy can be obtained by determining the potency of al antagonists to antagonize the contraction of human prostatic tissue induced by an α1 agonist “in vitro”. Furthermore, by comparing the potency of subtype selective α1 antagonists in binding assays using human α1 receptors with their potency to inhibit agonist-induced smooth muscle contraction, it is possible to determine which of the α1 adrenergic receptor subtypes is involved in the contraction of prostate smooth muscle.
Prostatic adenomas were obtained at the time of surgery from patients with symptomatic BPH. […] The baths were maintained at 37° C. and continuously oxygenated with 5% CO2 and 95% O2. Isometric tension was measured with a Grass Instrument FT03 force transducer interfaced with a computer. Tissue strips were contracted with varying concentrations of phenylephrine after incubating for 20 minutes in the absence and presence of at least three different concentrations of antagonist. Dose-response curves for phenylephrine were constructed, and the antagonist potency (pA2) was estimated by the dose-ratio method. The concentration of some antagonists in the tissue bath was assessed by measuring the displacement of [3H]prazosin by aliquots of the bath medium, using membrane preparations of the cloned human α1C receptor. This control was necessary to account for losses of antagonist due to adsorption to the tissue bath and/or metabolism during the time the antagonists were equilibrated with the prostate tissue.

The structures appear in SMILES notation. Counter-ions that a name gives are not always drawn.

Data on 2 compounds can be found in US6608086B2, “Dihydropyridines and new uses thereof” (Synaptic Pharmaceutical Corporation, priority 1993, dated 2003).

`COC(=O)C1=C(C)NC(C)=C(C(=O)NCCCN2CCC(c3ccccc3)CC2)C1c1ccc([N+](=O)[O-])cc1` (racemic) [(±)-45, (±)-1,4-Dihydro-3-methoxycarbonyl-2,6-dimethyl-4-(4-nitrophenyl)-5-{N-[3-(4-phenylpiperidin-1-yl)propyl]}carboxamidopyridine hydrochloride hemihydrate]: the negative-log Ki (pKi) – broadly, the Ki on a negative log10 scale, so that one unit is a factor of ten – (In Vitro Human Prostate Model, phenylephrine-induced contraction) is given as 8.07 ± 0.13.

Turning to `CNC(=O)C1=C(C)NC(C)=C(C(=O)NCCCN2CCC(c3ccccc3)(c3ccccc3)CC2)C1c1ccc([N+](=O)[O-])cc1` (centres unmarked) [Example 38, 1,4-Dihydro-2,6-dimethyl-5-(N-methyl)carboxamido-4-(4-nitrophenyl)-3-{N-[3-(4,4-diphenylpiperidin-1-yl)propyl]}carboxamidopyridine], the pA2 (in general, the negative logarithm of the molar antagonist concentration that doubles the agonist concentration needed for the same response) (block of phenylephrine-induced contraction of human prostate) amounted to 8.98 ± 0.06.
